Data from patent US20130116251A1, “Novel HSP90 Inhibitor” (Nippon Kayaku Kabushiki Kaisha, priority 2005, published 2013).
pIC50: −log10 of the molar value. Where a name gives a salt, the structure may show the parent alone. Read-outs that look alike come from different tables or passages of the source.

How the values were obtained:
[1] = system: Human breast cancer cells (MCF7); assay: Antiproliferative activity on MCF7 cells (methylene blue method); assay type: cell-based; settings: read-out: Antiproliferative activity IC50
Protocol: Human breast cancer cells (MCF7) were treated with samples of various concentrations of known HSP90 inhibitors (that is, geldanamycin, herbimycin, radicicol and PU3) and the compounds of the present invention for 72 hours to confirm the effect of the triazole derivatives of the present invention on the cell growth. The cell ratio after the drug treatment was evaluated by measuring 660 nm absorbance by a microplate reader (BioRad) after staining the cells with the methylene blue method.
Cells were distributed to wells of 96 well plates at 2000 cells per well and treated with drugs 24 hours later. Further, the medium was removed 72 hours later and the cells were fixed by adding 50 μl of methanol and standing at room temperature for 2 minutes. After removing methanol, 100 μl of a staining solution was added and stained for 30 minutes. After washing 3 times with 200 μl of distilled water, 3% HCl solution was added, and the 660 nm absorbance of methylene blue was measured by a microplate reader (BioRad).
Next, the antiproliferative activity rate (%) was obtained by the formula (2) below.
Antiproliferative activity rate(%)=((B−A)/B)×100 Formula (2)
wherein B is 660 nm absorbance of the sample when the compound of the present invention is not added, and A is 660 nm absorbance of the sample when the compound of the present invention is added.
From the concentration of the triazole derivative of the present invention and the antiproliferative activity rate, the concentration was obtained using the above formula, at which the cell growth was suppressed by 50% by comparing with the control, and termed an IC50 value.
The antiproliferative activity rate (%) was obtained for SH-b04, SH-b05 and SH-b06 described above by a similar manner to that of the triazole derivatives of the present invention.

rHSP90 = assay: HSP90 binding assay (BIACORE SPR; inhibition of binding between rHSP90 and fixed herbimycin A); settings: concentration inhibiting binding between rHSP90 (50 μg/mL) and fixed herbimycin A by 50%, BIACORE-X SPR; read-out: HSP90 inhibitory activity IC50
Description: The HSP90 binding assay system is a system for detecting the change of mass as SPR signal caused by the binding between herbimycin A fixed on a sensor chip and rHSP90 by BIACORE-X, in which 17-(6-amino hexylamino)herbimycin A is fixed through a carboxyl group on the surface of the sensor chip (CM5, BIACORE) on which carboxymethyldextran has been introduced. The method was according to the protocol of BIACORE. In addition, 17-(6-aminohexylamino)herbimycin A was synthesizes as described below.
rHSP90 (Stressgen Biotechnologies Corp., Victoria, BC Canada) at 50 μg/mL was exposed for 10 seconds to the surface of the sensor chip on which herbimycin A was fixed and the SPR signal (numerical value of interaction) was detected.
After mixing rHSP90 protein (5×10^−7M (50 μg/mL)) with the triazole derivative of the present invention, the mixture was exposed for 10 seconds to the surface of the sensor chip on which herbimycin A was fixed, and the SPR signal was measured by BIACORE-X.
Next, using following formula (1), the inhibitory activity (binding inhibition rate (%)) of the compound of the present invention to the binding between rHSP90 and fixed herbimycin A was obtained.
binding inhibition rate(%)=((b−s)/b)×100 Formula (1)
wherein b is the SPR signal when the compound of the present invention is not added to the sample: s is the SPR signal when the compound of the present invention is added to the sample.

[2] = MCF7 cells, 72 hours treatment, 660 nm absorbance after methylene blue staining
[3] = Homo sapiens, MCF7, 72 h, MCF7 cells, 72 hours treatment, 660 nm absorbance after methylene blue staining

Row | Compound | pIC50 (rHSP90) | pIC50 [1, 3] | pIC50 [1, 2] | pIC50 ([1]; Homo sapiens, MCF7, 72 h)
1 | 4-bromo-6-{5-methylsulfanyl-4-[4-(morpholin-4-yl)-phenyl]-4H-[1,2,4]triazol-3-yl}-benzene-1,3-diol trifluoroacetate [SMe-d01-TF] | 6.22 | – | 5.26 | –
2 | CC(C)c1cc(-c2n[nH]c(=O)n2-c2ccc(C(=O)O)cc2)c(O)cc1O [OH-a12, 4-[3-(2,4-dihydroxy-5-isopropylphenyl)-5-oxo-1,5-dihydro-[1,2,4]triazol-4-yl]-benzoic acid] | 6.72 | < 4.70 | – | –
3 | CC(C)c1cc(-c2n[nH]c(=O)n2-c2ccc(C(=O)N3CCOCC3)cc2)c(O)cc1O [OH-a14] | 6.72 | 6.14 | – | –
4 | CC(C)c1cc(-c2n[nH]c(=O)n2-c2cnc(N3CCOCC3)nc2)c(O)cc1O [OH-a17, 5-(2,4-dihydroxy-5-isopropyl-phenyl)-4-[2-(molpholin-4-yl)-pyrimidin-5-yl]-2,4-dihydro-[1,2,4]triazol-3-one] | 6.66 | 7.59 | – | –
5 | CC(C)c1cc(-c2n[nH]c(=O)n2N2CCCCC2)c(O)cc1O [OH-a24•TFA, 5-(2,4-dihydroxy-5-isopropyl-phenyl)-4-piperidin-1-yl-2,4-dihydro-[1,2,4]triazol-3-one] | 5.96 | 6.10 | – | –
6 | CC(C)c1cc(-c2n[nH]c(=O)n2CCN2CCOCC2)c(O)cc1O [OH-a26•HCl, 5-(2,4-dihydroxy-5-isopropyl-phenyl)-4-(2-morpholin-4-yl-ethyl)-2,4-dihydro-[1,2,4]triazol-3-one] | 6.74 | 6.22 | – | –
7 | CC(C)c1cc(-c2n[nH]c(=O)n2CCCN2CCOCC2)c(O)cc1O [OH-a27, 5-(2,4-dihydroxy-5-isopropyl-phenyl)-4-[3-(molpholin-4-yl)-propyl]-2,4-dihydro-[1,2,4]triazol-3-one] | 6.62 | 6.66 | – | –
8 | CC(C)c1cc(-c2n[nH]c(=O)n2CCCN2CCCC2=O)c(O)cc1O [OH-a30, 5-(2,4-dihydroxy-5-isopropyl-phenyl)-4-[3-(2-oxo-pyrrolidin-1-yl)propyl]-2,4-dihydro-[1,2,4]triazol-3-one] | 6.85 | 5.96 | – | –
9 | CC(C)c1cc(-c2n[nH]c(=O)n2C(CO)CO)c(O)cc1O [OH-a33, 5-(2,4-dihydroxy-5-isopropyl-phenyl)-4-(2-hydroxy-1-hydroxymethyl-ethyl)-2,4-dihydro-[1,2,4]triazol-3-one] | 6.43 | 5.48 | – | –
10 | CC#CCc1cc(-c2n[nH]c(=O)n2-c2ccc(CN3CCOCC3)cc2)c(O)cc1O [OH-c02, 5-[5-(but-2-ynyl)-2,4-dihydroxy-phenyl]-4-[4-(morpholin-4-ylmethyl)-phenyl]-2,4-dihydro-[1,2,4]triazol-3-one] | 6.66 | 6.85 | – | –
11 | C#CCc1cc(-c2n[nH]c(=O)n2-c2ccc(CN3CCOCC3)cc2)c(O)cc1O [OH-e02, 5-[2,4-dihydroxy-5-(prop-2-ynyl)-phenyl]-4-[4-(morpholin-4-ylmethyl)-phenyl]-2,4-dihydro-[1,2,4]triazol-3-one] | 6.82 | 6.62 | – | –
12 | CCCCn1c(Cc2cc(OC)c(OC)c(OC)c2)nc2c(N)ncnc21 [PU3, reference compound] | – | – | 4.04 | –
13 | CC(C)c1cc(-c2nnc(S(=O)(=O)CCCN(C)C)n2C(C)C)c(O)cc1O [SFN2-a21•TFA] | 6.00 | 5.28 | – | –
14 | CC(C)c1cc(-c2nnc(S(=O)(=O)CCCN3CCCCC3)n2C(C)C)c(O)cc1O [SFN3-a21•TFA, 4-isopropyl-6-[4-isopropyl-5-(3-piperidine-1-yl-propane-1-sulfonyl)-4H-[1,2,4]triazol-3-yl]-benzene-1,3-diol] | 5.85 | 5.39 | – | –
15 | CC(C)c1cc(-c2nnc(S(C)(=O)=O)n2CCN2CCOCC2)c(O)cc1O [SFN-a26, 4-isopropyl-6-[5-methanesulfonyl-4-(2-molpholin-4-ylethyl)-4H-[1,2,4]triazol-3-yl]-benzene-1,3-diol] | – | < 4.70 | – | –
16 | Oc1cc(O)c(-c2n[nH]c(=S)n2-c2ccc(N3CCOCC3)cc2)cc1Br [SH-d01, 4-bromo-6-{5-mercapto-4-[4-(morpholin-4-yl)-phenyl]-4H-[1,2,4]triazol-3-yl}-benzene-1,3-diol] | – | 6.24 | – | –
17 | COC1=C2C[C@@H](C)C[C@H](OC)[C@H](O)[C@@H](C)/C=C(\C)[C@H](OC(N)=O)[C@@H](OC)/C=C\C=C(/C)C(=O)NC(=CC1=O)C2=O [geldanamycin, reference compound] | – | 7.92 | – | –
18 | CO[C@H]1[C@@H](OC)C[C@H](C)[C@@H](OC)C2=CC(=O)C=C(NC(=O)/C(C)=C/C=C\[C@H](OC)[C@@H](OC(N)=O)/C(C)=C/[C@@H]1C)C2=O [herbimycin, reference compound] | – | – | – | 6.80
19 | C[C@@H]1C[C@H]2O[C@@H]2/C=C\C=C\C(=O)Cc2c(Cl)c(O)cc(O)c2C(=O)O1 [radicicol, reference compound] | – | 7.72 | – | –

More lines, main results first:

Row | pIC50 (rHSP90) | pIC50 [1, 3] | Compound | pIC50 [1, 2] | pIC50 ([1]; Homo sapiens, MCF7, 72 h)
20 | 6.80 | 8.17 | COc1cccc(-n2c(-c3cc(C(C)C)c(O)cc3O)n[nH]c2=O)c1 [OH-a09, 5-(2,4-dihydroxy-5-isopropyl-phenyl)-4-(3-methoxy-phenyl)-2,4-dihydro-[1,2,4]triazol-3-one] | – | –
21 | – | 7.85 | COc1ccc(-n2c(-c3cc(C(C)C)c(O)cc3O)n[nH]c2=O)cc1OC [OH-a10, 5-(2,4-dihydroxy-5-isopropyl-phenyl)-4-(3,4-dimethoxy-phenyl)-2,4-dihydro-[1,2,4]triazol-3-one] | – | –
22 | 6.46 | 6.41 | COCCn1c(-c2cc(C(C)C)c(O)cc2O)n[nH]c1=O [OH-a32, 5-(2,4-dihydroxy-5-isopropyl-phenyl)-4-(2-methoxy-ethyl)-2,4-dihydro-[1,2,4]triazol-3-one] | – | –
23 | 6.37 | 7.01 | CC(C)c1cc(-c2nnc(S(=O)(=O)CCCN(C)C)n2-c2ccc(O)cc2)c(O)cc1O [SFN2-a11•TFA, 4-[5-(3-dimethylamino-propylsulfonyl)-4-(4-hydroxy-phenyl)-4H-[1,2,4]triazol-3-yl]-6-isopropyl-benzene-1,3-diol] | – | –
24 | 6.64 | 5.00 | COc1ccc(-n2c(-c3cc(C(C)C)c(O)cc3O)nnc2S(=O)(=O)Cc2cccnc2)cc1 [SFN4-a08, 4-isopropyl-6-[4-(4-methoxy-phenyl)-5-(pyridin-3-ylmethanesulfonyl)-4H-[1,2,4]triazol-3-yl]-benzene-1,3-diol] | – | –
25 | 6.37 | 5.41 | COc1ccc(-n2c(-c3cc(C(C)C)c(O)cc3O)nnc2S(=O)(=O)Cc2ccc[n+]([O-])c2)cc1 [SFN5-a08, 4-isopropyl-6-[4-(4-methoxy-phenyl)-5-(1-oxy-pyridin-3-ylmethanesulfonyl)-4H-[1,2,4]triazol-3-yl]-benzene-1,3-diol] | – | –
26 | 6.24 | 6.26 | COc1ccc(-n2c(-c3cc(C(C)C)c(O)cc3O)nnc2S(=O)(=O)CC(=O)N(C)C)cc1 [SFN6-a08, 2-[5-(2,4-dihydroxy-5-isopropyl-phenyl)-4-(4-methoxy-phenyl)-4H-[1,2,4]triazol-3-sulfonyl]-N,N-dimethyl-acetamide] | – | –
27 | 6.14 | 6.14 | COc1ccc(-n2c(-c3cc(C(C)C)c(O)cc3O)nnc2S(=O)(=O)CC2CCCCO2)cc1 (centres unmarked) [SFN7-a08, 4-isopropyl-6-[4-(4-methoxy-phenyl)-5-(tetrahydro-pyran-2-ylmethanesulfonyl)-4H-[1,2,4]triazol-3-yl]-benzene-1,3-diol] | – | –
28 | 6.22 | 5.62 | COCCOCCS(=O)(=O)c1nnc(-c2cc(C(C)C)c(O)cc2O)n1-c1ccc(OC)cc1 [SFN8-a08, 4-isopropyl-6-{5-[2-(2-methoxy-ethoxy)-ethanesulfonyl]-4-(4-methoxy-phenyl)-4H-[1,2,4]triazol-3-yl}-benzene-1,3-diol] | – | –
29 | – | 5.51 | COc1ccc(-n2c(SC)nnc2-c2cc(C(C)C)c(O)cc2O)cc1 [SMe-a08, 4-isopropyl-6-[4-(4-methoxy-phenyl)-5-methylsulfanyl-4H-[1,2,4]triazol-3-yl]-benzene-1,3-diol] | – | –
